# Key:
# [1] = Stability in human plasma; assay type: in vitro ADME; conditions: 10 μM solution supplemented with human plasma, 37° C., 3 hours
# Experimental: FIG. 12. Fluorescence intensity (Ex.=670 nm) of HyP-1 (2 μM) at the indicated time points during incubation in 0.1 M potassium phosphate buffer (pH 7.4) supplemented with human plasma (20% v/v) at 37° C. for 3 h.
# (§1) In addition to Fe(II), the response of HyP-1 to a variety of alkali, alkaline earth and transition metals was also determined. […] To further evaluate the stability of HyP-1, a 10 μM solution of the probe was exposed to ambient light and temperature for up to 5 days. Additionally, a 10 μM solution of HyP-1 supplemented with human plasma was incubated at 37° C. for 3 hours. […] As mentioned previously, a major limitation of 2-nitroimidazole-based hypoxia probes is their susceptibility to oxygen-independent reduction via two-electron processes, such as by bacterial nitroreductases. […] Finally, the photostability of both HyP-1 and red-HyP-1 was evaluated via continuous PA image acquisition at 770 nm over the course of 1 hour.
# [2] = tested on: 4T1 murine mammary carcinoma cells; experiment: Ratiometric fluorescence microscopy in living cells; assay type: cell-based; conditions: 4T1 cells, epifluorescence microscope Cy7/Cy5, after 6 hours
# Experimental: After establishing excellent selectivity and responsiveness to hypoxic conditions in vitro, the performance of HyP-1 in living cells was evaluated before moving to in vivo studies. 4T1 murine mammary carcinoma cells were treated with a […] solution of HyP-1 and incubated at 37° C. either in a standard atmosphere containing 20% oxygen (normoxic conditions), or in an airtight chamber containing <0.1% oxygen (hypoxic conditions). Imaging was performed at 2, 4 and 6 hours using an epifluorescence microscope equipped with Cy5 and Cy7 filter sets to visualize HyP-1 and red-HyP-1, respectively (FIG. 5a).
# (§2) Authenticated 4T1 cells were purchased from ATCC. Cells were grown in RPMI 1640 medium supplemented with 10% fetal bovine serum. Cells were cultured at 37° C. in 5% CO2 and 20% 02 for normoxic conditions. Hypoxic cell culture was performed by incubating cells in a sealed container with a Mitsubishi AnaeroPack™ anaerobic gas generator. Hypoxic conditions were verified with the use of a Mitsubishi RT Anaero-Indicator.
# For fluorescence microscopy, cells were plated in 4-well chamber slides at an initial density of 1×10^4 cells/mL and allowed to grow until 60-80% confluent (approximately 6 days). Media was removed and cells were washed with PBS. […] Images were obtained using Cy5 and Cy7 filter cubes and analysed using ImageJ software (Version 1.50i).
# ischemic hindlimb tissue = experiment: In vivo fluorescence imaging of hindlimb ischemia model; parameters: species or system BALB/c mice; conditions: intramuscular 50 μL, 50 μM; over 1 hour
# Experimental: To visualize the response of HyP-1 in a model of rapidly developing hypoxia, a murine hindlimb ischemia model of peripheral artery disease was employed. Ischemia was induced in the right hindlimb of BALB/c mice via ligation of the femoral artery. […] After a 1-hour recovery period, HyP-1 (50 μL, 50 μM) was administered via intramuscular injection into both hindlimbs of the mouse. To visualize the time-dependent response of HyP-1 in the ischemic and non-ischemic tissue, ratiometric fluorescence imaging was performed over the course of 1 hour immediately following injection. […]
# All in vivo imaging experiments were performed with the approval of the Institutional Animal Care and Use Committee of the University of Illinois at Urbana-Champaign, following the principles outlined by the American Physiological Society on research animal use. […] Animals that underwent unsuccessful surgery as determined by laser Doppler perfusion imaging were excluded from analysis.
# Images were obtained using epi-fluorescence with excitation filters of 675 and 745 and corresponding emission filters of 720 and 800, respectively. […] ROIs of equal area were drawn around signals, and the total radiant efficiency in each ROI was determined. Ratiometric signal was calculated by determining the ratio of radiant efficiency corresponding to 800 nm and 720 nm emissions.
# 4T1 cells = experiment: Ratiometric fluorescence of cells, IVIS Spectrum; assay type: cell-based, murine; conditions: 4T1 cells, 5 μM HyP-1, 4 hours, IVIS Spectrum
# Experimental: Ratiometric fluorescence imaging was also performed on 4T1 cells cultured in 6-well plates using an IVIS Spectrum imaging system. Cells were stained with a 5 μM solution of HyP-1 and incubated in either normoxic or hypoxic conditions for 4 hours (FIG. 5c). […] To further verify the in vitro results and determine the cellular factors responsible for HyP-1 reduction, cells were also stained with HyP-1 solutions containing either BIPY or DPI at multiple concentrations and incubated under hypoxic conditions.
# as §2
# For cellular imaging using the IVIS Spectrum imaging system, cells were plated in a 6-well plate at an initial density of 1.7×10^4 cells/mL and allowed to grow until 60-80% confluent (approximately 3 days). Media was removed and cells were washed with PBS. A […] solution of HyP-1 in serum-free medium was added, and cells were incubated under normoxic or hypoxic conditions for 4 hours. For BIPY and DPI experiments, the staining solution was supplemented with the compound at the appropriate concentration, and ratiometric turn-on was reported relative to a vehicle control. Images were obtained using excitation and emission filter sets of 675/720 nm and 745/800 nm. Regions of interest (ROIs) were drawn around cell-containing wells, and ratiometric signal was calculated by determining the ratio of radiant efficiency corresponding to 800 nm and 720 nm emissions.
# [3] = Chemostability under ambient light and temperature; assay type: physicochemical; conditions: 10 μM solution, up to 5 days
# Experimental: FIG. 11. Fluorescence intensity (Ex.=670 nm) of HyP-1 (2 μM) at the indicated time points during extended incubation in 0.1 M potassium phosphate buffer (pH 7.4, 0.1% v/v CrEL) under ambient light and temperature. Represented as mean±SD (n=3).
# as §1
# E. coli cell lysates = experiment: Incubation with bacterial cell lysates; assay type: biochemical; conditions: 37° C., 2 h
# Experimental: FIG. 15. […] For the nitroreductase experiment, HyP-1 (2 μM) was incubated in the presence of nitroreductase (0.5 μg/mL) and NADH (100 μM) in 0.1 M potassium phosphate buffer (pH 7.4) at 37° C. for 2 h. For the bacterial experiment, bacteria were grown overnight, and cells were lysed via sonication. The suspension was centrifuged at 4000 rpm for 10 min, and the supernatant was removed. HyP-1 (2 μM) was incubated with cell lysate solution (1 mL) at 37° C. for 2 h.
# as §1
structure (smiles),measurement,setting,value
"CC[N+]([O-])(CC)c1ccc(-c2cc(-c3ccccc3)c3n2[B-](F)(F)[N+]2=C(c4ccc(OC)cc4)C=C(c4ccccc4)C2=N3)cc1 [HyP-1, 4-(5,5-difluoro-7-(4-methoxyphenyl)-1,9-diphenyl-5H-5λ^4,6λ^4-dipyrrolo[1,2-c:2′,1′-f][1,3,5,2]triazaborinin-3-yl)-N,N-diethylaniline oxide]",decomposition in human plasma,[1],no substantial decomposition
same,"ratiometric fluorescence response, hypoxic versus normoxic control",[2],1.6 fold
same,"ratiometric signal, ischemic tissue versus control",ischemic hindlimb tissue,3 fold
same,"ratiometric response, hypoxic versus normoxic wells",4T1 cells,2.5 fold
same,decomposition under ambient light and temperature,[3],no substantial decomposition
same,conversion to red-HyP-1,E. coli cell lysates,minimal conversion

# From patent US11292803B2, “Bioreducible N-oxide-based probes for imaging of hypoxia” (THE BOARD OF TRUSTEES OF THE UNIVERSITY OF ILLINOIS, priority 2018, dated 2022)
